Experimental data reported in US20140357512A1, “HISTONE DEACETYLASE (HDAC) BIOMARKERS IN MULTIPLE MYELOMA” (priority 2013, published 2014).

Tested on: human myeloma cell line MM.1S
Assay: SILAC acetylated-lysine peptide profiling, HDAC inhibitor vs DMSO (light/heavy ratio)
Format: cell-based
Text: An embodiment of the invention comprises utilizing the SILAC method in order to quantitate changes in protein expression between two or more populations of cells. The SILAC method is a technique based on mass spectrometry that detects differences in protein abundance among samples using non-radioactive isotopic labeling. The SILAC method is known in the art, and described in detail in Ong et al., “Stable Isotope Labeling by Amino Acids in Cell Culture, SILAC, as a Simple and Accurate Approach to Expression Proteomics”, Molecular & Cellular Proteomics, vol. 1, pp. 376-386 (2002), which is incorporated herein by reference in its entirety.
Briefly, the SILAC method involves growing two populations of cells in cell culture. The first population of cells is grown in growth media containing normal amino acids (“normal media”). The second population of cells is grown in media lacking a standard essential amino acid (such as lysine), but is then supplemented with a non-radioactive, isotopically labeled form of that essential amino acid (such as lysine labeled with ^13C atoms, rather than normal ^12C atoms), which is called “heavy media”. When the two populations of cells are each growing in the medium, they incorporate the amino acids into all of their proteins. The growth of cells maintained in the heavy media is no different from that in normal media. All peptides containing the heavy amino acids are heavier than their normal counterparts. The cells from each of the two populations of cells are lysed. The lysates from each of the two cell populations are then combined. The combined cell lysates are then analyzed by mass spectrometry. Pairs of chemically identical peptides of different stable isotope composition can be differentiated in a mass spectrometer due to their difference in mass. The ratio of peak intensities in the mass spectrum for such peptide pairs reflects the abundance ratio for the two proteins.
This example describes SILAC studies that were performed to compare the effects of three different HDAC inhibitors (Compound A, Compound B, and tubastatin A) to a control on a human multiple myeloma cell line. The HDAC inhibitors were also compared amongst themselves to determine differences in their effects.
A human myeloma cell line MM.1S was grown using either ^12C (light) or ^13C (heavy) lysine containing culture medium. The “heavy” cells were treated with DMSO as the control, and the “light” cells were treated with a single HDAC inhibitor at 37° C. for 6 hours. The heavy and light cells were lysed, and the lysates were mixed in 1:1 ratio and digested with the protease trypsin. The acetylated lysine containing peptides (due to the action of the HDAC inhibitor) in the digested peptide pool were captured by a non-specific anti-acetylated lysine antibody cocktail (the antibodies identify both light and heavy acetylated peptides), and subjected to mass spectrometry analysis in order to identify thousands of individual peptides.
Thousands of peptides were identified in pairs (^12C and ^13C) due to their known mass differences. The amino acid sequence and quantitative ratio (Light/Heavy) of a given peptide in two differentially treated cell lysates were then determined and annotated with their possible protein (gene) sources.
As stated above, three HDAC inhibitors (Compound A, Compound B, and Tubastatin A) were used. Thus, the SILAC method was performed three times, with a different HDAC inhibitor compared to a control each time. Accordingly, there are three pairs of quantitative data in the table below, i.e., Compound A:DMSO, Compound B:DMSO, and Tubastatin A:DMSO. A cut-off of 1.30 fold of change (increase or decrease) was then used to determine “changed” or “+” in the table, and any peptides with a fold of change less than 1.3 fold were determined to be “unchanged” or “0” in the table. Those peptides that were not identified were marked as “NA” in the table. […]

For O=C(CCCCCCNC(=O)c1cnc(N(c2ccccc2)c2ccccc2)nc1)NO [Compound A, 2-(diphenylamino)-N-(7-(hydroxyamino)-7-oxoheptyl)pyrimidine-5-carboxamide], the “L/H ratio of acetylated peptide […](ac)K (SEQ ID NO: 105)” value (SNORD21, RPL5 [220], log 2 scale, drug vs DMSO) was 0.00, the “L/H ratio of acetylated peptide […](ac)R (SEQ ID NO: 106)” value (SNORD43, RPL3 [115], log 2 scale, drug vs DMSO) was 0.00 and the “L/H ratio of acetylated peptide […](ac)YGAIR (SEQ ID NO: 107)” value (SRSF1 [38], log 2 scale, drug vs DMSO) was 0.00. For the same molecule, the “L/H ratio of acetylated peptide (ac)AEPSAPESK(ac)HK (SEQ ID NO: 108)” value (STT3B [10], log 2 scale, drug vs DMSO) was 0.00, the “L/H ratio of acetylated peptide” value (SYAEELAK(ac)HGMK (SEQ ID NO: 481), Estradiol 17-beta-dehydrogenase 12 [72], HSD17B12) was 0.39 log 2 and the “light to heavy ratio (L/H ratio), log 2 scale, acetylated peptide […](ac)R (SEQ ID NO: 781)” value (Selenoprotein H [20], gene C11orf31, drug:DMSO) was 1.00. The “light to heavy ratio (L/H ratio) of acetylated peptide LQDFK(ac)SFLLK (SEQ ID NO: 582)” value (Serine hydroxymethyltransferase mitochondrial [469], gene SHMT2, inhibitor:DMSO) was 0.43 log 2, the “light to heavy ratio (L/H ratio) of acetylated peptide SFLLK(ac)DSETSQR (SEQ ID NO: 567)” value (Serine hydroxymethyltransferase mitochondrial [474], gene SHMT2, inhibitor:DMSO) was 0.41 log 2 and the “light to heavy ratio (L/H ratio) of acetylated peptide VFEK(ac)YGR (SEQ ID NO: 568)” value (Serine/arginine-rich splicing factor 2 [36], gene SRSF2, inhibitor:DMSO) was 0.41 log 2. For the same molecule, the “light to heavy ratio (L/H ratio) of acetylated peptide SGLLDK(ac)WK (SEQ ID NO: 602)” value (Signal peptidase complex subunit 2 [38], gene LOC653566, SPCS2, inhibitor:DMSO) was 0.46 log 2, the “light to heavy ratio (L/H ratio) of acetylated peptide (ac)[…](ac)DK (SEQ ID NO: 283)” value (Splicing factor U2AF 35 kDa subunit [13], U2AF1, drug:DMSO) was 0.60 log 2 and the “light to heavy ratio (L/H ratio) of acetylated peptide YDDPEVQK(ac)DIK (SEQ ID NO: 578)” value (Stress-70 protein mitochondrial [135], gene HSPA9, inhibitor:DMSO) was 0.43 log 2. The “light to heavy ratio (L/H ratio) of acetylated peptide […](ac)SLAEHR (SEQ ID NO: 534)” value (Stress-induced-phosphoprotein 1 [325], gene STIP1, inhibitor:DMSO) was −0.40 log 2, the “light to heavy ratio (L/H ratio) of acetylated peptide, log 2 scale” value (TLQYK(ac)[…] (SEQ ID NO: 252), 40S ribosomal protein S16 [50], RPS16) was −0.39 and the “L/H ratio of acetylated peptide […](ac)YVPR (SEQ ID NO: 109)” value (TUBB2C [58], log 2 scale, drug vs DMSO) was 0.00. For the same molecule, the “L/H ratio of acetylated peptide ILAEGGGAK(ac)FK (SEQ ID NO: 110)” value (TUFM [91], log 2 scale, drug vs DMSO) was 0.00, the “L/H ratio of acetylated peptide QIESK(ac)[…] (SEQ ID NO: 111)” value (TXN [8], log 2 scale, drug vs DMSO) was 0.00 and the “L/H ratio of acetylated peptide VYVAK(ac)[…] (SEQ ID NO: 113)” value (TXNDC5, MUTED, MUTED-TXNDC5 [118], log 2 scale, drug vs DMSO) was 0.00. For the same molecule, the “L/H ratio of acetylated peptide […](ac)YQGPR (SEQ ID NO: 112)” value (TXNDC5, MUTED, MUTED-TXNDC5 [150], log 2 scale, drug vs DMSO) was 0.00, the “light to heavy ratio (L/H ratio), log 2 scale, acetylated peptide LLGITK(ac)ECVMR (SEQ ID NO: 815)” value (Talin-1 [334], gene TLN1, drug:DMSO) was 1.00 and the “light to heavy ratio (L/H ratio) of acetylated peptide NICSK(ac)YSVR (SEQ ID NO: 256)” value (Thioredoxin domain-containing protein 5 [390], TXNDC5, MUTED, MUTED-TXNDC5, drug:DMSO) was 0.39 log 2. The “light to heavy ratio (L/H ratio), log 2 scale, acetylated peptide […](ac)YGK (SEQ ID NO: 817)” value (Transitional endoplasmic reticulum ATPase [109], gene VCP, drug:DMSO) was 1.00, the “light to heavy ratio (L/H ratio) of acetylated peptide AVDCLLDSK(ac)WAK (SEQ ID NO: 518)” value (Translocation protein SEC62 [60], gene SEC62, inhibitor:DMSO) was −0.51 log 2 and the “light to heavy ratio (L/H ratio) of acetylated peptide NVK(ac)FVLK (SEQ ID NO: 609)” value (Translocon-associated protein subunit gamma [81], gene SSR3, inhibitor:DMSO) was 0.47 log 2. The “light to heavy ratio (L/H ratio) of acetylated peptide SEIINSK(ac)NFDR (SEQ ID NO: 525)” value (Transmembrane protein 43 [159], gene TMEM43, inhibitor:DMSO) was −0.45 log 2, the “light to heavy ratio (L/H ratio) of acetylated peptide VK(ac)[…] (SEQ ID NO: 562)” value (Tricarboxylate transport protein mitochondrial [149], gene SLC25A1, inhibitor:DMSO) was 0.40 log 2 and the “light to heavy ratio (L/H ratio), log 2 scale, acetylated peptide ESK(ac)[…] (SEQ ID NO: 787)” value (Trifunctional enzyme subunit alpha mitochondrial [337], gene HADHA, drug:DMSO) was 1.00. The “light to heavy ratio (L/H ratio), log 2 scale, acetylated peptide FGAPQK(ac)DVK (SEQ ID NO: 788)” value (Trifunctional enzyme subunit alpha mitochondrial [359], gene HADHA, drug:DMSO) was 1.00, the “light to heavy ratio (L/H ratio), log 2 scale, acetylated peptide ILQEGVDPK(ac)K (SEQ ID NO: 789)” value (Trifunctional enzyme subunit alpha mitochondrial [569], gene HADHA, drug:DMSO) was 1.00 and the “light to heavy ratio (L/H ratio) of acetylated peptide VPGK(ac)DTVTK (SEQ ID NO: 308)” value (Trifunctional enzyme subunit beta mitochondrial [272], HADHB, drug:DMSO) was 1.00 log 2. The “light to heavy ratio (L/H ratio), log 2 scale, acetylated peptide GK(ac)GK(ac)AGR (SEQ ID NO: 816)” value (Tubulin polymerization-promoting protein [187:189], gene TPPP, drug:DMSO) was 1.00, the “L/H ratio of acetylated peptide VVVTK(ac)YCDPDSYHR (SEQ ID NO: 114)” value (U2AF2 [462], log 2 scale, drug vs DMSO) was 0.00 and the “light to heavy ratio (L/H ratio), log 2 scale, acetylated peptide QNIILK(ac)NDK (SEQ ID NO: 784)” value (Uncharacterized protein CXorf59 [13], gene CXorf59, drug:DMSO) was 1.00. The “L/H ratio of acetylated peptide” value (VAILK(ac)ANLR (SEQ ID NO: 488), Transitional endoplasmic reticulum ATPase [658], VCP) was 0.80 log 2, the “L/H ratio of acetylated peptide FGIAAK(ac)[…] (SEQ ID NO: 115)” value (VDAC1 [224], log 2 scale, drug vs DMSO) was 0.00 and the “L/H ratio of acetylated peptide YK(ac)[…] (SEQ ID NO: 116)” value (VDAC2 [63], log 2 scale, drug vs DMSO) was 0.00.
